Assay results from patent publication US6897316B2, “Substituted 2-phenyl-4-quinolone-3-carboxylic acid compounds and their use as antitumor agents” (China Medical University, priority 2003, dated 2005).
In brackets after ≈: the same amount, converted by molar mass.

Assays:
[1] = system: melanoma (SK-MEL-2) cell line; experiment: Activity against HTCL replication, SK-MEL-2; type: cell-based, human; details: mean ED50
Experimental: (§1) Compounds were assayed for in vitro cytotoxicity in a panel of human tumor cell lines at the School of Pharmacy, University of North Carolina at Chapel Hill, according to procedures described previously [Lee, K. H., Lin, Y. M., Wu, T. S., Zhang, D. C., Yamagishi, T., Hayashi, T., Hall, I. H., Chang, J. J., Wu, R. Y., Yang, T. H. The cytotoxic principles of Prunella vulgaris, Psychotria serpens, and Hyptis capitata: Ursolic acid and related derivatives. Planta Med. 1988, 54, 308-11; Boyd, M. R. Status of the National Cancer Institute preclinical antitumor drug discovery screen: implications for selection of new agents for clinical trial. Devita, V. T., Jr. Hellman, S., Rosenberg, S. A., Eds, J. B. Cancer: Principles and Practice of Oncology Update, 1989, 3: pp1-12, Lippincoft: Philadephia; Monks, A., Scudiero, D., Skehan, P., Shoemaker, R., Paull, K., Vistica, D., Hose, C., Langley, J., Cronise, P., Vaigro-Wolff, A., Gray-Goodrich, M., Campbell, H., Mayo, J., Boyd, M. Feasibility of a high-flux anticancer drug screen using a diverse panel of cultured human tumor cell lines. J. Natl. Cancer Inst. 1991, 83, 757-66.] […]

bone (HOS) cell line = experiment: Activity against HTCL replication, HOS; type: cell-based, human; details: mean ED50
Experimental: as §1

melting point: 268 °C (dec.)
SMILES: COc1ccc2[nH]c(-c3cccc(F)c3)c(C(=O)O)c(=O)c2c1 [IX-8, 3′-Fluoro-6-methoxy-2-phenyl-4-quinolone-3-carboxylic acid]
ED50 SK-MEL-2 [1]: 0.16 mg/L (≈ 0.511 µM) | ED50 HOS (bone (HOS) cell line): 0.14 mg/L (≈ 0.447 µM)
